Earlier results, collected in patent publication US20210369601A1, “Pharmaceutical Formulation” (Klaria Pharma Holding AB, priority 2018, published 2021).

Settings: aqueous solution

CNCC(O)c1ccc(O)c(O)c1 (centres unmarked) [adrenaline]
pH of acceptable stability: < 5.5
pH of optimal stability: 3-4
